Reference: patent publication US11578369B2, “Method for the in vitro prognosis of individuals having multiple myeloma and method for the treatment thereof” (CENTRE NATIONAL DE LA RECHERCHE SCIENTIFIQUE, priority 2016, dated 2023)
Several values for one entry are separate records, joined by “and”; a condition that tells them apart may be missing. Identical values can stand only once.

Experiments:
Assay type in all cases: cell-based, human
MYC = MYC protein level in HMCLs by flow cytometry; conditions: 1 μM EPZ-6438 4 days, then 2 days with or without 2 μM lenalidomide
Description: (§1) The expression of IKZF1, c-Myc and IRF4 in HMCLs was evaluated by flow cytometry using PE-conjugated anti-IKZFL anti-MYC and anti-IRF4 mAb and isotype matched PE-conjugated mAb. Data are mean values±standard deviation (SD) of three experiments.
(§2) The expression of IKZF1, c-Myc and IRF4 in HMCLs was evaluated by flow cytometry using PE-conjugated anti-IKZF1, anti-MYC and anti-IRF4 mAb and isotype matched PE-conjugated mAb. IKZF1 expression was assessed by immunofluorescence using an anti-IKZF1 primary antibody and an AF555-conjugated secondary antibody and further plotted onto a graph.
(§3) Cells were fixed for 10 min with Cytofix/Cytoperm (BD BIOSCIENCES®) at 4° C.
(§4) IMiDs promote Ikaros and Aiolos transcription factors binding to the E3 ubiquitin ligase cereblon (CRBN) leading to Ikaros and Aiolos ubiquitination and proteasomal degradation. Ikaros and Aiolos degradation are associated with a downregulation of Interferon regulatory factor 4 (IRF4) and MYC playing an essential role in MMC survival.

IRF4 = IRF4 protein level in HMCLs by flow cytometry; conditions: 1 μM EPZ-6438 4 days, then 2 days with or without 2 μM lenalidomide
Description: as §1, §2, §3, §4

HMCLs [1] = experiment: Sublethal dose (IC10) of Decitabine on HMCLs
Description: To assess the potential synergistic effect of the inhibition of these two repressive mechanisms, we tested the combination of a sublethal dose of Decitabine (100 nM, IC10) with EPZ-6438 (1 μM) on two EPZ-6438-resistant HMCLs. […] Therefore, DNA hypomethylation can collaborate with EZH2 inhibition to block MM cell growth.

IKZF1 = IKZF1 protein level in HMCLs by flow cytometry; conditions: 1 μM EPZ-6438 4 days, then 2 days with or without 2 μM lenalidomide
Description: as §1, §2, §3, §4

[2] = system: LP1 and XG19 lenalidomide sensitive cell lines; experiment: Lenalidomide sensitivity of HMCLs after EPZ-6438 pretreatment, cell growth assay; conditions: 4 days 1 uM EPZ-6438 prior to lenalidomide, P<0.05
Description: HMCLs were cultured for 15 days in RPMI 1640 medium, 10% FCS, and 2 ng/ml IL-6 (control medium) in the presence of EPZ-6438 ([…] ®). Cell concentration and viability were assessed using trypan blue dye exclusion test. The number of metabolic-active was also determined using intracellular ATP quantitation.

primary MMCs = experiment: Sensitivity of patients' primary MMCs to EPZ-6438, 8-day culture, viable MMC count by CD138 flow cytometry; conditions: primary MMCs of 14 MM patients, one table row per patient; 1 μM EPZ-6438, 8 days, IL-6; in % (unit assumed)
Description: FIG. 3B: EZ score predicts for sensitivity of HMCLs and primary MMCs to EZH2 inhibitor. EZ score predicts for EPZ-6438 sensitivity of primary myeloma cells of patients. Mononuclear cells from tumor samples of 14 patients with MM were cultured for 8 days in the presence of IL-6 (2 ng/ml) with or without 1 μM EPZ-6438. At day 8 of culture, the count of viable MMCs was determined using CD138 staining by flow cytometry.
Bone marrow samples were collected after patients' written informed consent in accordance with the Declaration of Helsinki and institutional research board approval from Heidelberg and Montpellier University hospital. […] The structural chromosomal aberrations including t(4; 14)(p16.3; q32.3) and t(11; 14)(q13; q32.3), as well as numerical aberrations including 17p13 and 1q21 gain, were assayed by fluorescence in situ hybridization (iFISH). […] As iFISH data are not available for UAMS-TT2 patients, t(4; 14) translocation was evaluated using MMSET spike expression and del17p13 surrogated by TP53 probe set signal. […]
The inventors have determined that a set of 5 genes that are differentially expressed in a cohort of 14 MM individuals is associated with a prognostic value of their responsiveness to the EZH2 inhibitor EPZ-6438, as shown in Table 2 below. […]

HMCLs [3] = experiment: Sensitivity of HMCLs with high or low EZ score to EPZ-6438, cell growth assay; conditions: 1 μM EPZ-6438, 8 days; P=0.04
Description: FIG. 3A: EZ score predicts for sensitivity of HMCLs and primary MMCs to EZH2 inhibitor. […] Human myeloma cell lines were cultured for 8 days in 96-well flat-bottom microtiter plates in RPMI 1640 medium, 10% fetal calf serum, 2 ng/ml IL-6 culture medium (control) and 1 μM EPZ-6438. Data are mean values±standard deviation (s.d.) of five experiments determined.
HMCLs were cultured for 15 days in RPMI 1640 medium, 10% FCS, and 2 ng/ml IL-6 (control medium) in the presence of EPZ-6438 ([…]®). Cell concentration and viability were assessed using trypan blue dye exclusion test. The number of metabolic-active was also determined using intracellular ATP quantitation. […] Cell growth was evaluated by quantifying intracellular ATP amount with a Cell Titer Glo Luminescent Assay (PROMEGA®, Madison, Wis.) using a Centro LB 960 luminometer (BERTHOLD TECHNOLOGIES®, Bad Wildbad, Germany).
It was then sought to validate whether the EZ-score could predict for the sensitivity of 10 HMCLs to EPZ-6438. Starting from the large cohort of 40 HMCLs, the response of 5 HMCLs with a high EZ score and 5 HMCLs with a low EZ score to EPZ-6438 EZH2 inhibitor was analyzed.

SMILES | MYC protein level inhibition (MYC) [%] | IRF4 protein level inhibition (IRF4) [%] | IC10 (HMCLs [1]) [nM] | IKZF1 protein level inhibition (IKZF1) [%] | sensitization of myeloma cell lines to lenalidomide treatment [2] | Response (primary MMCs) | median higher EPZ-6438 sensitivity, 5 HMCLs with highest EZ score compared to 5 HMCLs with low EZ-score (HMCLs [3]) [fold]
Nc1cccc2c1CN(C1CCC(=O)NC1=O)C2=O (stereo not drawn) [lenalidomide] | 2.2 | 43 |  |  |  |  | 
Nc1ncn([C@H]2C[C@H](O)[C@@H](CO)O2)c(=O)n1 [Decitabine] |  |  | 100 |  |  |  | 
CCN(c1cc(-c2ccc(CN3CCOCC3)cc2)cc(C(=O)NCc2c(C)cc(C)[nH]c2=O)c1C)C1CCOCC1 [EPZ-6438, EPZ-6438 (Tazemetostat)] | 6.2 | 38.7 |  | 45.2 | significantly sensitize | 64.15 and 46.39 and 53.41 and 61.33 and 72.61 and 112.5 and 84.96 and 118 and 79.27 and 77.76 and 101.43 and 73.09 and 66.53 and 72.01 | 20
